Read-outs that look alike come from different tables or passages of the source.
Experiments:
[1] = tested on: Key Grass and Sedge Weeds as well as Grass Crops; assay: Post-Emergent Test II: postemergent herbicidal activity, visual rating after 14 d (Table 8); type: in vivo; conditions: post-emergence, 336 h; for pest or weed control at 35 g/ha: 35 g ai/ha; for pest or weed control at 70 g/ha: 70 g ai/ha; for pest or weed control at 140 g/ha: 140 g ai/ha
Outline: (§1)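 Visual scoring at 14 d, 0 (no injury) to 100 (complete kill), relative to untreated plants. Postemergent overhead track-sprayer application, 187 L/ha, at a top rate plus serial ½×–1/16× rates, to plants grown 7–21 d at about 23–29° C day under a 15 h photoperiod, then subirrigated.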

[2] = tested on: Key Broadleaf Weed and Crop Species; assay: Post-Emergent Test II: postemergent herbicidal activity, visual rating after 14 d (Table 7); type: in vivo; conditions: post-emergence, 336 h; for pest or weed control at 35 g/ha: 35 g ai/ha; for pest or weed control at 70 g/ha: 70 g ai/ha; for pest or weed control at 140 g/ha: 140 g ai/ha
Outline: as §1

[3] = barnyardgrass (Echinochloa crus-galli), read-out: Visual Growth Reduction (%) 14 Days After Application ECHCG
[4] = giant foxtail (Setaria faberi), read-out: Visual Growth Reduction (%) 14 Days After Application SETFA
[5] = maize, corn (Zea mays), read-out: Visual Growth Reduction (%) 14 Days After Application ZEAMX
[6] = rice (Oryza sativa), read-out: Visual Growth Reduction (%) 14 Days After Application ORYSA
[7] = wheat, spring (Triticum aestivum), read-out: Visual Growth Reduction (%) 14 Days After Application TRZAS
[8] = yellow nutsedge (Cyperus esculentus), read-out: Visual Growth Reduction (%) 14 Days After Application CYPES
[9] = lambsquarters (Chenopodium album), read-out: Visual Growth Reduction (%) 14 Days After Application CHEAL
[10] = oilseed rape, canola (Brassica napus), read-out: Visual Growth Reduction (%) 14 Days After Application BRSNN
[11] = redroot pigweed (Amaranthus retroflexus), read-out: Visual Growth Reduction (%) 14 Days After Application AMARE
[12] = sunflower (Helianthus annuus), read-out: Visual Growth Reduction (%) 14 Days After Application HELAN
[13] = velvetleaf (Abutilon theophrasti), read-out: Visual Growth Reduction (%) 14 Days After Application ABUTH
[14] = wild poinsettia (Euphorbia heterophylla), read-out: Visual Growth Reduction (%) 14 Days After Application EPHHL

COC(=O)c1nc(-c2ccc3c(c2)OC(F)(F)O3)c(C)c(N)c1Cl [Compound 49]
30 to 44%: pest or weed control at 35 g/ha [1, 5] | pest or weed control at 70 g/ha [1, 7] | pest or weed control at 140 g/ha [1, 7] | pest or weed control at 70 g/ha [2, 9] | pest or weed control at 140 g/ha [2, 13]
60 to 74%: pest or weed control at 70 g/ha [1, 5] | pest or weed control at 140 g/ha [1, 5]
85 to 94%: pest or weed control at 140 g/ha [2, 9] | pest or weed control at 35 g/ha [2, 12] | pest or weed control at 70 g/ha [2, 12]
0 to 29%: pest or weed control at 35 g/ha [1, 3] | pest or weed control at 70 g/ha [1, 3] | pest or weed control at 140 g/ha [1, 3] | pest or weed control at 35 g/ha [1, 4] | pest or weed control at 70 g/ha [1, 4] | pest or weed control at 140 g/ha [1, 4] | pest or weed control at 35 g/ha [1, 6] | pest or weed control at 70 g/ha [1, 6] | pest or weed control at 140 g/ha [1, 6] | pest or weed control at 35 g/ha [1, 7] | pest or weed control at 35 g/ha [1, 8] | pest or weed control at 70 g/ha [1, 8] | pest or weed control at 140 g/ha [1, 8] | pest or weed control at 35 g/ha [2, 9] | pest or weed control at 35 g/ha [2, 10] | pest or weed control at 70 g/ha [2, 10] | pest or weed control at 140 g/ha [2, 10] | pest or weed control at 35 g/ha [2, 11] | pest or weed control at 70 g/ha [2, 11] | pest or weed control at 140 g/ha [2, 11] | pest or weed control at 35 g/ha [2, 13] | pest or weed control at 70 g/ha [2, 13] | pest or weed control at 35 g/ha [2, 14] | pest or weed control at 70 g/ha [2, 14] | pest or weed control at 140 g/ha [2, 14]
95 to 100%: pest or weed control at 140 g/ha [2, 12]

Cc1c(-c2ccc3c(c2)OC(F)(F)O3)nc(C(=O)O)c(Cl)c1N [Compound 52]
0 to 29%: pest or weed control at 35 g/ha [1, 4] | pest or weed control at 70 g/ha [1, 4] | pest or weed control at 35 g/ha [1, 6] | pest or weed control at 70 g/ha [1, 6] | pest or weed control at 140 g/ha [1, 6] | pest or weed control at 35 g/ha [1, 7] | pest or weed control at 35 g/ha [1, 8] | pest or weed control at 70 g/ha [1, 8] | pest or weed control at 140 g/ha [1, 8] | pest or weed control at 35 g/ha [2, 9] | pest or weed control at 70 g/ha [2, 9] | pest or weed control at 140 g/ha [2, 9] | pest or weed control at 35 g/ha [2, 10] | pest or weed control at 70 g/ha [2, 10] | pest or weed control at 140 g/ha [2, 10] | pest or weed control at 35 g/ha [2, 11] | pest or weed control at 70 g/ha [2, 11] | pest or weed control at 140 g/ha [2, 11] | pest or weed control at 35 g/ha [2, 13] | pest or weed control at 70 g/ha [2, 13] | pest or weed control at 140 g/ha [2, 13] | pest or weed control at 35 g/ha [2, 14] | pest or weed control at 70 g/ha [2, 14] | pest or weed control at 140 g/ha [2, 14]
30 to 44%: pest or weed control at 70 g/ha [1, 7] | pest or weed control at 140 g/ha [1, 7]
75 to 84%: pest or weed control at 140 g/ha [1, 3]
85 to 94%: pest or weed control at 35 g/ha [2, 12]
60 to 74%: pest or weed control at 70 g/ha [1, 3] | pest or weed control at 35 g/ha [1, 5] | pest or weed control at 70 g/ha [1, 5] | pest or weed control at 140 g/ha [1, 5]
45 to 59%: pest or weed control at 35 g/ha [1, 3] | pest or weed control at 140 g/ha [1, 4]
95 to 100%: pest or weed control at 70 g/ha [2, 12] | pest or weed control at 140 g/ha [2, 12]

COC(=O)c1nc(-c2ccc3c(c2)OC(C)(C)O3)nc(N)c1Cl [Compound 55]
60 to 74%: pest or weed control at 35 g/ha [1, 5] | pest or weed control at 70 g/ha [1, 5] | pest or weed control at 140 g/ha [1, 5] | pest or weed control at 70 g/ha [2, 9] | pest or weed control at 70 g/ha [2, 12]
45 to 59%: pest or weed control at 35 g/ha [2, 9] | pest or weed control at 35 g/ha [2, 11] | pest or weed control at 35 g/ha [2, 12]
75 to 84%: pest or weed control at 35 g/ha [1, 3] | pest or weed control at 70 g/ha [1, 3] | pest or weed control at 140 g/ha [1, 3] | pest or weed control at 35 g/ha [1, 4] | pest or weed control at 140 g/ha [2, 9] | pest or weed control at 140 g/ha [2, 12] | pest or weed control at 35 g/ha [2, 13] | pest or weed control at 70 g/ha [2, 13] | pest or weed control at 140 g/ha [2, 13]
95 to 100%: pest or weed control at 140 g/ha [2, 11] | pest or weed control at 35 g/ha [2, 14] | pest or weed control at 70 g/ha [2, 14] | pest or weed control at 140 g/ha [2, 14]
0 to 29%: pest or weed control at 35 g/ha [1, 6] | pest or weed control at 70 g/ha [1, 6] | pest or weed control at 140 g/ha [1, 6] | pest or weed control at 35 g/ha [1, 7] | pest or weed control at 70 g/ha [1, 7] | pest or weed control at 140 g/ha [1, 7] | pest or weed control at 35 g/ha [1, 8] | pest or weed control at 70 g/ha [1, 8] | pest or weed control at 140 g/ha [1, 8] | pest or weed control at 35 g/ha [2, 10] | pest or weed control at 70 g/ha [2, 10] | pest or weed control at 140 g/ha [2, 10]
85 to 94%: pest or weed control at 70 g/ha [1, 4] | pest or weed control at 140 g/ha [1, 4] | pest or weed control at 70 g/ha [2, 11]

COC(=O)c1nc(-c2cc3c(cc2F)OC(F)(F)O3)nc(N)c1Cl [Compound 56]
45 to 59%: pest or weed control at 35 g/ha [1, 5] | pest or weed control at 70 g/ha [1, 8] | pest or weed control at 140 g/ha [1, 8]
85 to 94%: pest or weed control at 35 g/ha [2, 12] | pest or weed control at 70 g/ha [2, 12] | pest or weed control at 140 g/ha [2, 12]
95 to 100%: pest or weed control at 140 g/ha [1, 3] | pest or weed control at 70 g/ha [2, 14] | pest or weed control at 140 g/ha [2, 14]
30 to 44%: pest or weed control at 70 g/ha [1, 7] | pest or weed control at 140 g/ha [1, 7]
60 to 74%: pest or weed control at 35 g/ha [1, 4] | pest or weed control at 70 g/ha [1, 5] | pest or weed control at 35 g/ha [2, 14]
0 to 29%: pest or weed control at 35 g/ha [1, 6] | pest or weed control at 70 g/ha [1, 6] | pest or weed control at 140 g/ha [1, 6] | pest or weed control at 35 g/ha [1, 7] | pest or weed control at 35 g/ha [1, 8] | pest or weed control at 35 g/ha [2, 9] | pest or weed control at 70 g/ha [2, 9] | pest or weed control at 140 g/ha [2, 9] | pest or weed control at 35 g/ha [2, 10] | pest or weed control at 70 g/ha [2, 10] | pest or weed control at 140 g/ha [2, 10] | pest or weed control at 35 g/ha [2, 11] | pest or weed control at 70 g/ha [2, 11] | pest or weed control at 140 g/ha [2, 11] | pest or weed control at 35 g/ha [2, 13] | pest or weed control at 70 g/ha [2, 13] | pest or weed control at 140 g/ha [2, 13]
75 to 84%: pest or weed control at 35 g/ha [1, 3] | pest or weed control at 70 g/ha [1, 3] | pest or weed control at 70 g/ha [1, 4] | pest or weed control at 140 g/ha [1, 4] | pest or weed control at 140 g/ha [1, 5]
